Values joined by “and” are separate entries in the source; they are usually repeats but may differ in a detail not shown here. Equal values may be shown once. Ends that are not written are not given here. Peptide text beside a SMILES is read from it. * marks the point of attachment. Acm = CC(=O)NC*
Tests used:
[1] = Safety of the peptides: bolus tail vein administration to rat, observation until five days, dissection; format: in vivo; settings: for abnormality in tissue checked with the naked eye (hemostatis, pigmentation, discoloration): dissection five days after 8.3 μg per 1.0 g of rat; for abnormality in tissue checked with the naked eye (hemostatis, pigmentation, discoloration) / extreme change in weight, i.e., weight gain or loss: tail vein; for symptoms such as slobber, vomiting, ocular proptosis, and behavioral abnormality: just after bolus tail vein administration, 8.3 μg per 1.0 g of rat; for extreme change in weight, i.e., weight gain or loss: until five days after 8.3 μg per 1.0 g of rat
Procedure: Assuming that clinical dosage to human is 1.0 mg/60 kg, bolus administration of Peptide-1, Peptide 4 and Peptide-5 in an amount of 8.3 μg per 1.0 g of rat and physiological saline as control were made respectively to the tail vein of the rat. Immediately after the administration, behavior of the rat was observed. The observation was continued until five days later; zero minute, ten minutes, three hours, six hours, one day, two days, three days, four days, and five days later. Just after the peptide administration, symptoms such as slobber, vomiting, ocular proptosis, and behavioral abnormality were not observed. Furthermore, extreme change in weight, i.e., weight gain or loss was not observed until five days later. After weighing five days later, the rats were dissected. Abnormality in tissue was checked with the naked eye; abnormality in any tissue was not noted such as hemostatis, pigmentation, or discoloration. These gave estimation that more than 1,000 times administration of the assumed clinical dosage would be safe.

[2] = system: inflammation site of inflammation model rats; experiment: Imaging of inflammation sites using indium-111 labeled peptide (turpentine oil inflammation model rats, gamma camera); format: in vivo, Sparague-Davley Rats; settings: 3.7-7.4 MBq tail vein, mean ± standard error, three rats
Procedure: Peptide-1-DTPA obtained in EXAMPLE 8, in an amount of 100 through 200 nmol was adjusted to pH 5.7 in a 0.1M citrate buffer solution, and then 37 to 74 MBq of indium (^111 In) chloride was added thereto. After agitation, the solution was left as such for 15 minutes. A part of the solution was taken and checked for the labeling percentage by electrophoresis. The radiochemical purity of the target compound was 98%. Peptide-3-Sulfo-SMCC-CHI-DTPA obtained in EXAMPLE 10 was also labeled with In-111 in the same way as above, and the radiochemical purity of the target compound was 90%.
(§1) To the right femoral part of Sparague-Davley Rats weighing about 220 g, 100 μl of turpentine oil was subcutaneously administered. After 24 hours, when inflammation was clearly observed, Ravonal anesthesia was applied; then, Peptide-1-DTPA-indium-111 and Peptide-3-Sulfo-SMCC-CHI-DTPA-indium-111 obtained in EXAMPLE 14 were respectively administered in an amount of 3.7 MBq-7.4 MBq to the respective tail vein. Images were obtained with gamma camera one, three, and six hours later. A site of interest was set on the image, where the ratio ([T]/[B] ratio) of total counts for the inflammation site [T] to total counts for the corresponding normal site of the opposite leg [B] was determined. The [T]/[B] ratio, one hour after the administration, was 2.63 for Peptide-1-DTPA-indium-111 and 2.09 for Peptide-3-DTPA-indium-111, whereby the focal site was evidently imaged.

[3] = system: focal region of model rats with infectious disease (Staphylococcus aureus); experiment: Imaging of rat model with infectious disease (Staphylococcus aureus) using technetium-99m labeled peptide; format: in vivo, Sparague-Davely Rats; settings: 37-74 MBq tail vein, mean ± standard error
Procedure: In 1.0 mL of physiological saline, 10^8 of viable microbe cells of Staphylococcus aureus were suspended. An aliquot of 100 μl was administered intramuscularly to the right femoral region of Sparague-Davely Rats weighing about 220 g. After 24 hours, Ravonal anesthesia was applied to the model rats that had clearly evident inflammation; then, 37-74 MBq of technetium-99m labeled Peptide-6 obtained in […] was administered to the tail vein. Images were obtained with gamma camera one, three, and six hours later respectively. A site of interest was set on the image, and the [T]/[B] ratio was determined.

[4] = system: inflammation site of inflammatory model rats; experiment: Imaging of inflammation sites using technetium-99m labeled peptide (turpentine oil inflammation model rats, gamma camera); format: in vivo, Sparague-Davley Rats; settings: 37-74 MBq tail vein, mean ± standard error, three rats
Procedure: An amount of 240-300 nmol of Peptide-2 obtained in EXAMPLE 2 was taken into each vial, and a volume of a 0.1M phosphate buffer solution (pH 8.0) was added thereto to adjust the whole […] Atmosphere in the vial was replaced with argon; then 180-300 nmol of dithiothreitol was added thereto, The mixture was then allowed to react for one hour at room temperature. Next, 120 nmol of stannous chloride and 740-1110 MBq of sodium pertechnetate were added. The mixture was left for one hour under gentle agitation. Peptide-2 labeled with technetium-99m was yielded. Peptide labeled had radiochemical purity not less than 90%.
Experiments were made for all the peptides those prepared in EXAMPLEs 4, 5, 6 and 7. Each of the peptides was taken, in an amount of 0.2-1.0 μmol, into a vial respectively, and a volume of a 0.1M phosphate buffer solution (pH 8.0) was added thereto to adjust the whole volume to 500 μl. Atmosphere in the respective vial was replaced with argon. To each vial, 500 μl of 1.5-2.2 GBq/ml glucoheptanate labeled with technetium-99m yielded in EXAMPLE 16 was added and quickly agitated. Thereafter, the mixture was allowed to react for 20 minutes in a boiling water bath. Labeling percentage of all the experimented peptides after cooling was 90-95% according to TLC.
as §1
After Ravonal anesthesia was applied to the model rats described in EXAMPLE 18, 37-74 MBq of technetium-99m labeled Peptide-2 obtained in EXAMPLE 15, Peptide-4, Peptide-5, Peptide-6 and Peptide-7 obtained in EXAMPLE 17 were each administered to the respective tail vein. Images were obtained with gamma camera 30 minutes and one, three, and six hours later respectively. A site of interest was set on the image and the [T]/[B] ratio was determined. The [T]/[B] ratio, one hour after the administration, was 3.35 for Peptide-2, 4.98 for Peptide-6, 3.36 for Peptide-7, 4.27 for Peptide-4 and 4.41 for Peptide-5 whereby the focal site was evidently imaged.

[5] = assumed clinical dosage to human 1.0 mg/60 kg, estimate from rat observation

Row | Compound | abnormality in tissue checked with the naked eye (hemostatis, pigmentation, discoloration) [1] | symptoms such as slobber, vomiting, ocular proptosis, and behavioral abnormality [1] | extreme change in weight, i.e., weight gain or loss [1] | [T]/[B] ratio of Tc-99m labeled peptide in inflammatory model rats ([4]; 1 hr. after administration) | [T]/[B] ratio of Tc-99m labeled peptide in inflammatory model rats ([4]; 3 hrs. after administration) | [T]/[B] ratio of Tc-99m labeled peptide in inflammatory model rats ([4]; 6 hrs. after administration) | also measured
1 | CC(C)C[C@H](NC(=O)[C@H](CC(C)C)NC(=O)[C@H](CCC(=O)O)NC(=O)[C@@H]1CCCN1C(=O)CNC(=O)CNC(=O)[C@@H](N)CCCCN)C(=O)NCC(=O)NCC(=O)N1CCC[C@H]1C(=O)N[C@@H](CO)C(=O)N[C@H](C(=O)O)C(C)C [Peptide-1, KGGPELLGGPSV] (H-KGGPELLGGPSV-OH) | not noted | not observed | not observed |  |  |  | estimated safe administration relative to the assumed clinical dosage ([1]; rat, in vivo): more than 1,000 times
2 | CC(C)C[C@H](NC(=O)[C@@H](N)CC(C)C)C(=O)NCC(=O)NCC(=O)N1CCC[C@H]1C(=O)N[C@@H](CO)C(=O)N[C@H](C(=O)N[C@@H](CS)C(=O)O)C(C)C [Peptide-3, LLGGPSVC] (H-LLGGPSVC-OH) |  |  |  |  |  |  | [T]/[B] ratio of In-111 labeled peptides in inflammation model rats ([2]; 1 hr. after administration, inflammation site vs opposite normal leg): 2.09 ± 0.18; [T]/[B] ratio of In-111 labeled peptides in inflammation model rats ([2]; 3 hrs. after administration): 2.46 ± 0.29; [T]/[B] ratio of In-111 labeled peptides in inflammation model rats ([2]; 6 hrs. after administration): 2.78 ± 0.15
3 | (PELLGGPSV)×4 in parallel (K)×2 in parallel (KGGC(Acm)GC(Acm)) (PELLGGPSVPELLGGPSVPELLGGPSVPELLGGPSVKKKGGC(Acm)GC(Acm); also: branched Lys scaffold carrying four PELLGGPSV arms) [Peptide-6] |  |  |  | 4.98 and 4.98 ± 0.23 | 4.61 ± 0.49 | 3.20 ± 0.39 | [T]/[B] ratio of Tc-99m labeled peptide in model rats with infectious disease ([3]; 1 hr. after administration, S. aureus intramuscular, right femoral region): 1.92 and 1.92 ± 0.10; [T]/[B] ratio of Tc-99m labeled peptide in model rats with infectious disease ([3]; 3 hrs. after administration, S. aureus model): 1.58 ± 0.05; [T]/[B] ratio of Tc-99m labeled peptide in model rats with infectious disease ([3]; 6 hrs. after administration, S. aureus model): 1.52 ± 0.17
4 | C(Acm) GC(Acm)GGGKEYKAKVSNKALPAPIEKTISK (C(Acm)GC(Acm)GGGKEYKAKVSNKALPAPIEKTISK; also: technetium-99m label) [Peptide-4] | not noted | not observed | not observed | 4.27 and 4.27 ± 0.26 | 3.10 ± 0.20 |  | [T]/[B] ratio of Tc-99m labeled peptide in inflammatory model rats ([4]; 30 mins after administration): 2.47 ± 0.17; estimated safe administration relative to the assumed clinical dosage [1, 5]: more than 1,000 times
5 | C(Acm)GC(Acm)GGKTKPREQQYNSTYRVV (also: technetium-99m label) [Peptide-5] | not noted | not observed | not observed | 4.41 and 4.41 ± 0.62 | 3.85 ± 0.63 |  | [T]/[B] ratio of Tc-99m labeled peptide in inflammatory model rats ([4]; 30 mins after administration): 2.61 ± 0.08; estimated safe administration relative to the assumed clinical dosage [1, 5]: more than 1,000 times
6 | C(Acm)GC(Acm)GG[(PELLGGPSV)×3 repeats in tandem]A (C(Acm)GC(Acm)GGPELLGGPSVPELLGGPSVPELLGGPSVA; also: technetium-99m label) [Peptide-7] |  |  |  | 3.36 and 3.36 ± 0.31 | 2.18 ± 0.39 | 2.26 ± 0.20 | 
7 | CGCGGLLGGPSV (cysteine pairing not given here; also: technetium-99m label) [Peptide-2] |  |  |  | 3.35 and 3.35 ± 0.33 | 2.78 ± 0.23 | 2.82 ± 0.17 | 

— US5821330A, “Peptide having inflammation affinity and radioactive diagnostic containing the same” (Nihon Medi-Physics Co., Ltd., priority 1993, dated 1998)
